Each block holds one compound with its values, some of them ahead of it.
Key:
[1] = system: A549 (lung adenocarcinoma); assay: Cytotoxic MTS assay, A549; type: cell-based, human
Description: (§1) In vitro cytotoxic activity of final compounds 5–82 was evaluated after 3 days of incubation against eight cell lines derived from human solid tumors including lung (A549 cells) and colon (HCT116 and HCT116p53−/−) carcinomas, as well as leukemia cell lines (CCRF-CEM, CEM-DNR, K562, and K562-TAX) and osteosarcoma (U2OS cells). For comparison, non-malignant BJ and MRC-5 fibroblasts, and BJLD and MCR-5LD fibroblasts doxorubicin-resistant cell lines were used. Concentrations inhibiting the cell growth by 50% (IC50) were determined using a quantitative metabolic staining with 3-(4,5-dimethylthiazol-2yl)-5-(3-carboxymethoxyphenyl)-2-(4-sulfophenyl)-2H-tetrazolium (MTS) and are summarized in (Table 3).
(§2) Cytotoxic activity was determined by MTS assay following 72 h of incubation. IC50 is the lowest concentration that kills 50% of cells. The standard deviation in cytotoxicity assays is typically up to 20% of the average value. […] The tested cell lines: A549 (lung adenocarcinoma), BJ (noncancerous human fibroblasts from foreskin), BJLD (human lung fibroblast doxorubicin-resistant), CCRF-CEM (childhood T cell acute lymphoblastic leukemia), a daunorubicin-resistant subline of CCRF-CEM cells (CEM-DNR bulk), HCT116 (colorectal carcinoma), HCT116p53−/− (HCT116 with deleted p53 gene), K562 (chronic myeloid leukemia), K562-TAX (chronic myeloid leukemia paclitaxel-resistant subline), MRC-5 (noncancerous human lung fibroblasts), MRC-5LD (noncancerous human lung fibroblasts doxorubicin-resistant), and U2OS (osteosarcoma).
(§3) All cell lines were purchased from the American Tissue Culture Collection (ATCC). The A549 cell line is lung adenocarcinoma. MRC-5 and BJ cell lines were used as a non-tumor control and represent human fibroblasts. (MRC-5 LD and BJLD) are doxorubicin-resistant human lung fibroblast cell lines. The CCRF-CEM line is derived from T lymphoblastic leukemia, evincing high chemosensitivity, whereas K562 represent cells from an […] patient sample with bcr-abl translocation. The daunorubicin-resistant subline of CCRF-CEM cells (CEM-DNR bulk) and paclitaxel-resistant subline K562-TAX were selected in our laboratory by the cultivation of maternal cell lines in increasing concentrations of daunorubicin or paclitaxel, respectively. The CEM-DNR bulk cells overexpress MRP-1 and P-glycoprotein protein, whereas K562-TAX cells overexpress P-glycoprotein only. Both proteins belong to the family of ABC transporters and are involved in the primary and/or acquired multidrug-resistance phenomenon. The U2OS cell line is derived from osteosarcoma, HCT116 is a colorectal tumor cell line and its p53 gene knock-down counterpart (HCT116p53−/−, Horizon Discovery Ltd., Cambridge, UK) is a model of human cancers with p53 mutation frequently associated with poor prognosis. The cells were maintained in nunc/corning 80 cm^2 plastic tissue culture flasks and cultured in a cell culture medium according to ATCC or Horizon recommendations (DMEM/RPMI 1640 with 5 g/L glucose, 2 mM glutamine, 100 U/mL penicillin, […], 10% fetal calf serum, and NaHCO3).
(§4) The activity of compounds was determined using a standard 3-(4,5-dimethylthiazol-2-yl)-5-(3-carboxymethoxyphenyl)-2-(4-sulfophenyl)-2H-tetrazolium (MTS) and it was performed at the Institute of Molecular and Translational Medicine by a robotic platform (High-ResBiosolutions). Cell suspensions were prepared and diluted according to the particular cell type and the expected target cell density (25,000–35,000 cells/mL based on cell growth characteristics). Cells were added by automatic pipettor (30 µL) into 384-well microtiter plates. All tested compounds were dissolved in 100% DMSO and four-fold dilutions of the intended test concentration were added in 0.15 µL aliquots at time zero to the microtiter plate wells by the echo acoustic non-contact liquid handler Echo550 (Labcyte). […]

[2] = system: BJ (noncancerous human fibroblasts from foreskin); assay: Cytotoxic MTS assay, BJ; type: cell-based
Description: as §1, §2, §3, §4

[3] = system: BJLD (human lung fibroblast doxorubicin-resistant); assay: Cytotoxic MTS assay, BJLD; type: cell-based
Description: as §1, §2, §3, §4

[4] = system: CCRF-CEM (childhood T cell acute lymphoblastic leukemia); assay: Cytotoxic MTS assay, CCRF-CEM; type: cell-based, human
Description: as §1, §2, §3, §4

[5] = system: CEM-DNR bulk (daunorubicin-resistant subline of CCRF-CEM cells); assay: Cytotoxic MTS assay, CEM-DNR; type: cell-based, human
Description: as §1, §2, §3, §4

[6] = system: HCT116 (colorectal carcinoma); assay: Cytotoxic MTS assay, HCT116; type: cell-based, human
Description: as §1, §2, §3, §4

[7] = system: HCT116p53−/− (HCT116 with deleted p53 gene); assay: Cytotoxic MTS assay, HCT116p53−/−; type: cell-based, human
Description: as §1, §2, §3, §4

[8] = system: K562 (chronic myeloid leukemia); assay: Cytotoxic MTS assay, K562; type: cell-based, human
Description: as §1, §2, §3, §4

[9] = system: K562-TAX (chronic myeloid leukemia paclitaxel-resistant subline); assay: Cytotoxic MTS assay, K562-TAX; type: cell-based, human
Description: as §1, §2, §3, §4

[10] = system: MRC-5 (noncancerous human lung fibroblasts); assay: Cytotoxic MTS assay, MRC-5; type: cell-based
Description: as §1, §2, §3, §4

[11] = system: MRC-5LD (noncancerous human lung fibroblasts doxorubicin-resistant); assay: Cytotoxic MTS assay, MRC-5LD; type: cell-based
Description: as §1, §2, §3, §4

U2OS (osteosarcoma) = assay: Cytotoxic MTS assay, U2OS; type: cell-based, human
Description: as §1, §2, §3, §4

Compound: COc1cccc(C(=O)OCCS(=O)(=O)c2cc[n+]([O-])c3cc(Cl)ccc23)c1OC [Compound 64, 2-[(N-Oxide 7-chloroquinolin-4-yl)sulfonyl]ethyl-2,3-dimethoxybenzoate]
IC50 [1]: 28.4 µM | IC50 [2]: 9.19 µM | IC50 [3]: 8.95 µM | IC50 [4]: 0.71 µM | IC50 [5]: 8.99 µM | IC50 [6]: 8.18 µM | IC50 [7]: 7.68 µM | IC50 [8]: 5.51 µM | IC50 [9]: 5.65 µM | IC50 [10]: 6.08 µM | IC50 [11]: 3.28 µM | IC50 (U2OS (osteosarcoma)): 7.43 µM

Compound: COc1cc(OC)c(C(=O)OCCCS(=O)(=O)c2cc[n+]([O-])c3cc(Cl)ccc23)cc1OC [Compound 76, 3-[(N-Oxide 7-chloroquinolin-4-yl)sulfonyl]propyl-2,4,5-trimethoxybenzoate]
IC50 [1]: 11.4 µM | IC50 [2]: 35.7 µM | IC50 [3]: 24.4 µM | IC50 [4]: 2.22 µM | IC50 [5]: 18.1 µM | IC50 [6]: 7.96 µM | IC50 [7]: 8.66 µM | IC50 [8]: 8.77 µM | IC50 [9]: 19.9 µM | IC50 [10]: 22.5 µM | IC50 [11]: 19.6 µM | IC50 (U2OS (osteosarcoma)): 9.33 µM

Compound: Cc1ccc([N+](=O)[O-])c(C(=O)OCCCS(=O)(=O)c2cc[n+]([O-])c3cc(Cl)ccc23)c1 [Compound 80, 3-[(N-Oxide 7-chloroquinolin-4-yl)sulfonyl]propyl-5-methyl-2-nitrobenzoate]
IC50 [1]: 6.44 µM | IC50 [2]: 22.2 µM | IC50 [3]: 15.9 µM | IC50 [4]: 1.49 µM | IC50 [5]: 6.78 µM | IC50 [6]: 4.61 µM | IC50 [7]: 6 µM | IC50 [8]: 6.75 µM | IC50 [9]: 6 µM | IC50 [10]: 20 µM | IC50 [11]: 16.3 µM | IC50 (U2OS (osteosarcoma)): 5.74 µM

Compound: COc1cc(OC)c(C(=O)OCCCSc2ccnc3cc(Cl)ccc23)cc1OC [Compound 29, 3-[(7-Chloroquinolin-4-yl)sulfanyl]propyl-2,4,5-trimethoxybenzoate]
melting point: 118 to 120 °C

Compound: COc1ccc(C(=O)OCCCSc2ccnc3cc(Cl)ccc23)c(OC)c1 [Compound 25, 3-[(7-Chloroquinolin-4-yl)sulfanyl]propyl-2,4-dimethoxybenzoate]
melting point: 74 to 76 °C

Compound: COc1cc(C(=O)OCCSc2ccnc3cc(Cl)ccc23)cc(OC)c1OC [Compound 14, 2-[(7-Chloroquinolin-4-yl)sulfanyl]ethyl 3,4,5-trimethoxybenzoate]
melting point: 139 to 140 °C

Compound: COc1cc(OC)cc(C(=O)OCCSc2ccnc3cc(Cl)ccc23)c1 [Compound 11, 2-[(7-Chloroquinolin-4-yl)sulfanyl]ethyl 3,5-dimethoxybenzoate]
melting point: 100 to 102 °C

Compound: COc1ccc(C(=O)OCCCSc2ccnc3cc(Cl)ccc23)c(OC)c1OC [Compound 28, 3-[(7-Chloroquinolin-4-yl)sulfanyl]propyl-2,3,4-trimethoxybenzoate]
melting point: 84 °C

Compound: O=C(OCCSc1ccnc2cc(Cl)ccc12)c1cccc(Cl)c1 [Compound 16, 2-[(7-Chloroquinolin-4-yl)sulfanyl]ethyl 3-chlorobenzoate]
melting point: 94 to 96 °C

Compound: COc1cc(OC)c(C(=O)OCCSc2ccnc3cc(Cl)ccc23)cc1OC [Compound 13, 2-[(7-Chloroquinolin-4-yl)sulfanyl]ethyl 2,4,5-trimethoxybenzoate]
melting point: 134 to 135 °C

Compound: COc1ccc(C(=O)OCCSc2ccnc3cc(Cl)ccc23)c(OC)c1 [Compound 7, 2-[(7-Chloroquinolin-4-yl)sulfanyl]ethyl 2,4-dimethoxybenzoate]
melting point: 107 to 108 °C

Compound: COc1ccc(C(=O)OCCSc2ccnc3cc(Cl)ccc23)cc1 [Compound 5, 2-[(7-Chloroquinolin-4-yl)sulfanyl]ethyl-4-methoxybenzoate]
melting point: 116 to 118 °C

Compound: COc1ccc(OC)c(C(=O)OCCSc2ccnc3cc(Cl)ccc23)c1 [Compound 8, 2-[(7-Chloroquinolin-4-yl)sulfanyl]ethyl-2,5-dimethoxybenzoate]
melting point: 98 to 100 °C

Compound: O=C(OCCSc1ccnc2cc(Cl)ccc12)c1ccccc1Cl [Compound 15, 2-[(7-Chloroquinolin-4-yl)sulfanyl]ethyl 2-chlorobenzoate]
melting point: 108 °C

Compound: COc1cc(OC)cc(C(=O)OCCCSc2ccnc3cc(Cl)ccc23)c1 [Compound 27, 3-[(7-Chloroquinolin-4-yl)sulfanyl]propyl-3,5-dimethoxybenzoate]
melting point: 148 °C

Compound: Cc1ccc([N+](=O)[O-])c(C(=O)OCCSc2ccnc3cc(Cl)ccc23)c1 [Compound 18, 2-[(7-Chloroquinolin-4-yl)sulfanyl]ethyl 5-methyl-2-nitrobenzoate]
melting point: 93 to 95 °C

Results, then the compound that gave them:

melting point: 144 to 146 °C
Compound: COc1cc(C(=O)OCC[S+]([O-])c2ccnc3cc(Cl)ccc23)cc(OC)c1OC (centres unmarked) [Compound 46, 2-[(7-Chloroquinolin-4-yl)sulfinyl]ethyl-3,4,5-trimethoxybenzoate]

melting point: 136 to 138 °C
Compound: Cc1cc(C)cc(C(=O)OCCCSc2ccnc3cc(Cl)ccc23)c1 [Compound 37, 3-[(7-Chloroquinolin-4-yl)sulfanyl]propyl-3,5-dimethylbenzoate]

melting point: 91 to 92 °C
Compound: Cc1ccc([N+](=O)[O-])c(C(=O)OCCCSc2ccnc3cc(Cl)ccc23)c1 [Compound 36, 3-[(7-Chloroquinolin-4-yl)sulfanyl]propyl-5-methyl-2-nitrobenzoate]

melting point: 110 °C
Compound: COc1cccc(C(=O)OCC[S+]([O-])c2ccnc3cc(Cl)ccc23)c1OC (centres unmarked) [Compound 43, 2-[(7-Chloroquinolin-4-yl)sulfinyl]ethyl-2,3-dimethoxybenzoate]

melting point: 88 to 89 °C
Compound: O=C(OCCCSc1ccnc2cc(Cl)ccc12)c1ccc(Cl)cc1Cl [Compound 34, 3-[(7-Chloroquinolin-4-yl)sulfanyl]propyl-2,4-dichlorobenzoate]

melting point: 126 to 128 °C
Compound: COc1ccc(C(=O)OCC[S+]([O-])c2ccnc3cc(Cl)ccc23)cc1 (centres unmarked) [Compound 42, 2-[(7-Chloroquinolin-4-yl)sulfinyl]ethyl-4-methoxybenzoate]

melting point: 122 to 124 °C
Compound: O=C(OCCCSc1ccnc2cc(Cl)ccc12)c1ccc(C(F)(F)F)cc1 [Compound 38, 3-[(7-Chloroquinolin-4-yl)sulfanyl]propyl-4-(trifluoromethyl)benzoate]

melting point: 96 to 98 °C
Compound: O=C(OCCCSc1ccnc2cc(Cl)ccc12)c1cccc(Cl)c1 [Compound 33, 3-[(7-Chloroquinolin-4-yl)sulfanyl]propyl-3-chlorobenzoate]

melting point: 88 to 90 °C
Compound: CC(C)(C)c1ccc(C(=O)OCCCSc2ccnc3cc(Cl)ccc23)cc1 [Compound 39, 3-[(7-Chloroquinolin-4-yl)sulfanyl]propyl-4-tert-butylbenzoate]

melting point: 100 to 102 °C
Compound: O=C(OCCCSc1ccnc2cc(Cl)ccc12)c1ccccc1Cl [Compound 32, 3-[(7-Chloroquinolin-4-yl)sulfanyl]propyl-2-chlorobenzoate]

From publication PMC9607427, “Novel 7-Chloro-(4-thioalkylquinoline) Derivatives: Synthesis and Antiproliferative Activity through Inducing Apoptosis and DNA/RNA Damage” (Pharmaceuticals, 2022)
